From ChEMBL document CHEMBL6103575, “Design, synthesis and evaluation of (E)-1-(4-(2-(1H-pyrazol-5-yl)vinyl)phenyl) derivatives as next generation selective RET inhibitors overcoming RET solvent front mutations (G810C/R)” (Eur J Med Chem, 2025) come the findings set out here.

Experiment [1] is described as follows: Induction of apoptosis in mouse BaF3 cells harboring CCDC6-RET G810R mutant assessed as late apoptotic cells at 300 nM incubated for 48 hrs by Annexin V-PE staining based flow cytometry analysis (Rvb =3.21%). It counts as functional.
In experiment [2] the target is Proto-oncogene tyrosine-protein kinase receptor Ret (Homo sapiens, UniProt P07949). Description: Inhibition of RET (unknown origin).
Proto-oncogene tyrosine-protein kinase receptor Ret (Homo sapiens, UniProt P07949), sequence (P07949 whole entry): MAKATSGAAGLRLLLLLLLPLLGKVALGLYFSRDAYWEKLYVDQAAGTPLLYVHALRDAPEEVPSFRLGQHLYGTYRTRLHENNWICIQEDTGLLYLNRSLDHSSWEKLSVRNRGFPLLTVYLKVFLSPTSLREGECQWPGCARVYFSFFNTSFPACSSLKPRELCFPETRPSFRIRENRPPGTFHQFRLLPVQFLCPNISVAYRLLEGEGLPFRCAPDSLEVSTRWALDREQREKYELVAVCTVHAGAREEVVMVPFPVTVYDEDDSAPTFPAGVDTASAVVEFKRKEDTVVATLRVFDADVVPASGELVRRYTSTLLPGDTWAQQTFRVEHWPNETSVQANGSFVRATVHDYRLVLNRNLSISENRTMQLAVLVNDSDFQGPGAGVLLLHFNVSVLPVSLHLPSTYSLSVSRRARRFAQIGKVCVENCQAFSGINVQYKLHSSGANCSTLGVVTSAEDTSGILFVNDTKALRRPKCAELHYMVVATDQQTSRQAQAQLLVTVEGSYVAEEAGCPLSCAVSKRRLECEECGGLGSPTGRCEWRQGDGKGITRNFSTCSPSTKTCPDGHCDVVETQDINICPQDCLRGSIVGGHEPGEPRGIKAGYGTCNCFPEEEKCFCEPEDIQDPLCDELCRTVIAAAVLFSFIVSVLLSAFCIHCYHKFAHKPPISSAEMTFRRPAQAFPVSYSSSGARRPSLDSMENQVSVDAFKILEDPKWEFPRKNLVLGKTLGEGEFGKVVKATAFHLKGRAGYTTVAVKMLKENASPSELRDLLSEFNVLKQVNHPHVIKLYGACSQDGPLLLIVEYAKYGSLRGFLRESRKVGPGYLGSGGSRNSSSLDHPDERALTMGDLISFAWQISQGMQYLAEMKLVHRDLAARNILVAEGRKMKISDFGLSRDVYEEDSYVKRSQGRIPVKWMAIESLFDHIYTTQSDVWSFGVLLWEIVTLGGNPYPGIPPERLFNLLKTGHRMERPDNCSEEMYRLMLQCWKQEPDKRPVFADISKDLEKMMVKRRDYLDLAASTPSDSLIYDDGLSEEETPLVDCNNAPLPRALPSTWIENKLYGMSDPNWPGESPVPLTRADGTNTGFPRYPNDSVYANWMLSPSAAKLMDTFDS
A short description of experiment [3]: Induction of apoptosis in mouse BaF3 cells harboring CCDC6-RET G810C mutant assessed as necrotic cells at 30 nM incubated for 48 hrs by Annexin V-PE staining based flow cytometry analysis (Rvb =0.48%). It counts as functional.
Experiment [4] is described as follows: Induction of apoptosis in mouse BaF3 cells harboring CCDC6-RET G810C mutant assessed as late apoptotic cells at 300 nM incubated for 48 hrs by Annexin V-PE staining based flow cytometry analysis (Rvb =4.30%). It counts as functional.
Experiment [5] can be described thus: Induction of apoptosis in mouse BaF3 cells harboring CCDC6-RET assessed as viable cells at 300 nM incubated for 48 hrs by Annexin V-PE staining based flow cytometry analysis (Rvb =91.16%). It counts as functional. The conditions noted are these: read-out: Activity. (Flow cytometry measures light scatter and fluorescence of single cells or particles in a stream.)

Experiment [6] in a line: Induction of cell cycle arrest in mouse BaF3 cells harboring CCDC6-RET G810C mutant assessed as accumulation of cells at G2/M phase at 300 nM incubated for 24 hrs by propidium iodide staining based analysis (reference value: 34.75%). It counts as functional.
Experiment [7] can be described thus: Induction of cell cycle arrest in mouse BaF3 cells harboring CCDC6-RET G810C mutant assessed as accumulation of cells at G0/G1 phase at 300 nM incubated for 24 hrs by propidium iodide staining based analysis (reference value: 52.11%). It counts as functional.
A short description of experiment [8]: Induction of cell cycle arrest in mouse BaF3 cells harboring CCDC6-RET assessed as accumulation of cells at G0/G1 phase at 30 nM incubated for 24 hrs by propidium iodide staining based analysis (reference value: 52.51%). The class given is functional.
Experiment [9] concerns BaF3. Description: Inhibition of SHC phosphorylation in mouse BaF3 cells harboring CCDC6-RET incubated for 12 hrs by Western blotting analysis. The conditions noted are these: dose <= 300.0 nM. It counts as cell-based.
In experiment [10] the target is BDNF/NT-3 growth factors receptor (Homo sapiens, UniProt Q16620). Kind of experiment: Inhibition of TRKB (unknown origin).
BDNF/NT-3 growth factors receptor, sequence (Q16620 whole entry): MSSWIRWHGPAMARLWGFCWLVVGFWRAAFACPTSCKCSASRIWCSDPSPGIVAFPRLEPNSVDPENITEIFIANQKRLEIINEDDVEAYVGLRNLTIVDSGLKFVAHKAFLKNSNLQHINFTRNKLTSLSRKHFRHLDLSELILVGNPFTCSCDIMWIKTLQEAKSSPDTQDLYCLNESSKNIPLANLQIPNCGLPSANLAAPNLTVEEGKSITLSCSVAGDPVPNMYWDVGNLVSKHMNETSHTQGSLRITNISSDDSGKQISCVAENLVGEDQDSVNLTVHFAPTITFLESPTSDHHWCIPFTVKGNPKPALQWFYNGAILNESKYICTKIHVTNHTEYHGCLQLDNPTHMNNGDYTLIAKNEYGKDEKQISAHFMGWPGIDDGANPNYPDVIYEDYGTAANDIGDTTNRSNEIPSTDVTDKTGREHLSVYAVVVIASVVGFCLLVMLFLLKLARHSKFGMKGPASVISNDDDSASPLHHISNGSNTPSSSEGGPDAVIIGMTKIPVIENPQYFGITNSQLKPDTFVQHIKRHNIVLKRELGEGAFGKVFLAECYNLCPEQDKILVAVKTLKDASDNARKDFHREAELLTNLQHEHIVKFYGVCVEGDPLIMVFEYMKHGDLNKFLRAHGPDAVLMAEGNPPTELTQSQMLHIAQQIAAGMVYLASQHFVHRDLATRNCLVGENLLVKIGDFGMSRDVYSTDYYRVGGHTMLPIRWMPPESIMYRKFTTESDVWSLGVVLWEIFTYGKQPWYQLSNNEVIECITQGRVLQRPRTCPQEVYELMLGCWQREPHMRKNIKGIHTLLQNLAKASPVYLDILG
A short description of experiment [11]: Induction of apoptosis in mouse BaF3 cells harboring CCDC6-RET G810C mutant assessed as late apoptotic cells at 100 nM incubated for 48 hrs by Annexin V-PE staining based flow cytometry analysis (Rvb =4.30%). The class given is functional.
The nature of experiment [12]: Induction of cell cycle arrest in mouse BaF3 cells harboring CCDC6-RET assessed as accumulation of cells at S phase at 300 nM incubated for 24 hrs by propidium iodide staining based analysis (reference value: 13.27%). The class given is functional.
Experiment [13] in a line: Induction of apoptosis in mouse BaF3 cells harboring CCDC6-RET G810R mutant assessed as early apoptotic cells at 10 nM incubated for 48 hrs by Annexin V-PE staining based flow cytometry analysis (Rvb =10 %). The class given is functional.
Experiment [14] in a line: Induction of cell cycle arrest in mouse BaF3 cells harboring CCDC6-RET G810C mutant assessed as accumulation of cells at G2/M phase at 100 nM incubated for 24 hrs by propidium iodide staining based analysis (reference value: 34.75%). The class given is functional.
The subject of experiment [15] is Proto-oncogene tyrosine-protein kinase receptor Ret (Homo sapiens), P07949 [V804M]. Description: Inhibition of RET (unknown origin) V804M mutant at 1 uM relative to control.
A short description of experiment [16]: Induction of cell cycle arrest in mouse BaF3 cells harboring CCDC6-RET G810R mutant assessed as accumulation of cells at S phase at 30 nM incubated for 24 hrs by propidium iodide staining based analysis (reference value: 13.66%). The class given is functional.
Experiment [17] is described as follows: Induction of apoptosis in mouse BaF3 cells harboring CCDC6-RET assessed as late apoptotic cells at 10 nM incubated for 48 hrs by Annexin V-PE staining based flow cytometry analysis (Rvb =2.44%). The class given is functional.
Experiment [18] deals with Proto-oncogene tyrosine-protein kinase receptor Ret (Homo sapiens), P07949 [G810R]. Description: Inhibition of RET (unknown origin) G810R mutant at 1 uM relative to control.
Proto-oncogene tyrosine-protein kinase receptor Ret (Homo sapiens), P07949 [G810R], sequence (P07949 whole entry G810R): as the sequence (P07949 whole entry) above, with G810R counted along it
The target in experiment [19] is T1, Ephrin type-B receptor 4 (Homo sapiens) (UniProt P54760).
T1 sequence (whole entry): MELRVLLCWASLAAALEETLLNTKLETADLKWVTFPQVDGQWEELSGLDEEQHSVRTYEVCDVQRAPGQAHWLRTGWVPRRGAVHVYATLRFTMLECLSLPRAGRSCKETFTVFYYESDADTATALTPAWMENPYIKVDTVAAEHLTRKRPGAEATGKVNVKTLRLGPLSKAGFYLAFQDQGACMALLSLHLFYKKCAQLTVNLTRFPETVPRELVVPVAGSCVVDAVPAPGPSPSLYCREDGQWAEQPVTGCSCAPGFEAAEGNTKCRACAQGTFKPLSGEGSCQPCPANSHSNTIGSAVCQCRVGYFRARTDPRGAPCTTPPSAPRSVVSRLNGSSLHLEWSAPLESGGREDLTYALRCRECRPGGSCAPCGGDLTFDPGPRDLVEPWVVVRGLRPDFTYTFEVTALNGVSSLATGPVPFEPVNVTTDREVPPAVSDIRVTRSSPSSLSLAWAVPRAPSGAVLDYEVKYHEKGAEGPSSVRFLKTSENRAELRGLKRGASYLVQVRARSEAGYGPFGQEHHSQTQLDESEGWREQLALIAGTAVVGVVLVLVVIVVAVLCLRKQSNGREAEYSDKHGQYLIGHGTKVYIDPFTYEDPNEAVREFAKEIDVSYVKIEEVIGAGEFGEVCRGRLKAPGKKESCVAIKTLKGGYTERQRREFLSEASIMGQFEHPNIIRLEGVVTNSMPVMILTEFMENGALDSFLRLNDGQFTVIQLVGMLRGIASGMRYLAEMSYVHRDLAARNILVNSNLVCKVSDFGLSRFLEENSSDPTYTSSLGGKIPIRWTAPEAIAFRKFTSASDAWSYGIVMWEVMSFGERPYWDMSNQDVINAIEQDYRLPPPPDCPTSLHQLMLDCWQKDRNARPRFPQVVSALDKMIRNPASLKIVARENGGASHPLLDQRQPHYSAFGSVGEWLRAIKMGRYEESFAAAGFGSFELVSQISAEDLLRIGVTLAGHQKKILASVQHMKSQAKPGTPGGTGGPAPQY
Kind of experiment: Inhibition of EPHB4 (unknown origin) at 1 uM relative to control.

Experiment [20] in a line: Induction of apoptosis in mouse BaF3 cells harboring CCDC6-RET assessed as viable cells at 100 nM incubated for 48 hrs by Annexin V-PE staining based flow cytometry analysis (Rvb =91.16%). It counts as functional. Particulars: read-out: Activity.
Experiment [21] in a line: Induction of apoptosis in mouse BaF3 cells harboring CCDC6-RET G810C mutant assessed as viable cells at 100 nM incubated for 48 hrs by Annexin V-PE staining based flow cytometry analysis (Rvb =86.47%). The class given is functional. The conditions noted are these: read-out: Activity.
Experiment [22] deals with Proto-oncogene tyrosine-protein kinase receptor Ret (Homo sapiens, UniProt P07949, G810C). Kind of experiment: Inhibition of RET (unknown origin) G810C mutant.
Proto-oncogene tyrosine-protein kinase receptor Ret (Homo sapiens, UniProt P07949, G810C), sequence (P07949 29-1114 G810C limits assumed): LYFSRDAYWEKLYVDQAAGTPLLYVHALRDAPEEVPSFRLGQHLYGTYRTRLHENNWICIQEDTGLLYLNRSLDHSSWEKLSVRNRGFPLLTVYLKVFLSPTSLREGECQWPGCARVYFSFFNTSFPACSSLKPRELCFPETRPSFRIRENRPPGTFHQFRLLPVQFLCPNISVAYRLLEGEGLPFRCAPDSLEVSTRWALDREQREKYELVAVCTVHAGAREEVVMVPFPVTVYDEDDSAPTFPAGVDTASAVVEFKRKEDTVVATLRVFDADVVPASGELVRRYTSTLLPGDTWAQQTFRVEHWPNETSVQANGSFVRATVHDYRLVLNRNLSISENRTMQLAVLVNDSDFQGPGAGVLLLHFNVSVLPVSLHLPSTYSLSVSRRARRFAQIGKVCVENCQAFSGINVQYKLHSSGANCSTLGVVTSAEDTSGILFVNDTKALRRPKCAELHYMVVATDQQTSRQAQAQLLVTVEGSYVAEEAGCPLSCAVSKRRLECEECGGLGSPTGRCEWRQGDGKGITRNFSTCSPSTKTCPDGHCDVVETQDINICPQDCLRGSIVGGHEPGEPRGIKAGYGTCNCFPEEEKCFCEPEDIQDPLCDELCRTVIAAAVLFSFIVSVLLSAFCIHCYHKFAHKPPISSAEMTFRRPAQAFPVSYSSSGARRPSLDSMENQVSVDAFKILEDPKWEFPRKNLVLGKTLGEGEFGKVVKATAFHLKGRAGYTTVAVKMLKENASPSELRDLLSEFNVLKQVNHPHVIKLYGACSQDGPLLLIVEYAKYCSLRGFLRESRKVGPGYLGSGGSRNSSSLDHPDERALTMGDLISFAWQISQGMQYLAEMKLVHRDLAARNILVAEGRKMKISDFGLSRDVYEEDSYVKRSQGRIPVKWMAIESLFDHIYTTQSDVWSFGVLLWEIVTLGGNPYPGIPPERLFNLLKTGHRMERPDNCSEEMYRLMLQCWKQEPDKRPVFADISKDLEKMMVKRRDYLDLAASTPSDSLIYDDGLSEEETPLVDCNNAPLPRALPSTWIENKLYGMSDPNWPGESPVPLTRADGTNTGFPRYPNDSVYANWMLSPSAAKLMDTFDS

Proto-oncogene tyrosine-protein kinase receptor Ret (Homo sapiens), P07949 [V804M], sequence (P07949 whole entry V804M): as the sequence (P07949 whole entry) above, with V804M counted along it

Usually IC50 stands for the concentration that inhibits the measured activity by half. Read a low IC50 as higher potency. A word on the inhibition: it is how much of the control response was suppressed. Take `COc1cncc(-c2cn[nH]c2/C=C/c2ccc(NC(=O)Nc3cc(C(C)(C)C(F)(F)F)on3)c(Cl)c2)c1`: the Activity in experiment [1] was 9.06%; in [3], 0.47%; in [4], 0.31%; in experiment [6], 23.18%; in [7], 72.47%; in experiment [8] it was 56.2%. For the same compound, the Activity in [11] is 1.87%; in experiment [12], 3.34%; in experiment [13], 10.05%; in experiment [14], 25.81%; in experiment [16], 14.08%; in [17] it was 2.8%. The half-inhibitory concentration (IC50) was found to be 4.2 nM in experiment [2], 86.7 nM in experiment [10] and 7.1 nM in experiment [22]. Moreover, in experiment [5], the viability at 0.3 µM is 13.9%. For the same compound, the inhibition result in [9] is “Dose-dependent-effect”; in [15], 98.6%; in experiment [18] it was 74%; in experiment [19] it was 92.9%. For the same compound, the viability at 0.1 µM in experiment [20] is 24%; in [21] it was 60%.
